# Reference: patent US6914045B2, “Glycopeptide antibiotics” (Wyeth Holdings Corporation, priority 2001, dated 2005)
# What was measured:
# Experiment in all cases: in vitro antibacterial evaluation, MIC by broth dilution
# Format in all cases: cell-based
# Escherichia coli = settings: broth dilution, 18 hours at 35° C.; for MIC Escherichia coli (ATCC 25922): strain ATCC 25922; for MIC Escherichia coli (GC 4559): strain GC 4559; for MIC Escherichia coli (GC 4560): strain GC 4560
# How it was run: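 MIC is the lowest antibiotic concentration (tested 64-0.06 μg/mL) preventing growth of a 5×10^5 CFU/mL inoculum. Determined by broth dilution in Mueller-Hinton II medium following NCCLS standard M7-A2.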
# Staphylococcus sp. = settings: broth dilution, 18 hours at 35° C.; for MIC Staphylococcus aureus (ATCC 29213): strain ATCC 29213; for MIC Staphylococcus aureus (GC 1131): strain GC 1131; for MIC Staphylococcus aureus (GC 3051): strain GC 3051; for MIC Staphylococcus aureus (GC 3053): strain GC 3053; for MIC Staphylococcus aureus (GC 4541): strain GC 4541; for MIC Staphylococcus aureus (GC 4542): strain GC 4542; for MIC Staphylococcus aureus-SMITH (GC 4543): strain GC 4543; for MIC Staphylococcus aureus (GC 4544): strain GC 4544; for MIC Staphylococcus aureus (GC 4545): strain GC 4545; for MIC Staphylococcus haemolyticus (GC 4546): strain GC 4546; for MIC Coagulase Negative Staphylococcus (GC 4547): strain GC 4547; for MIC Coagulase Negative Staphylococcus (GC 4548): strain GC 4548; for MIC Coagulase Negative Staphylococcus (GC 4549): strain GC 4549; for MIC Coagulase Negative Staphylococcus (GC 4551): strain GC 4551
# Protocol: (§1) Methods for in vitro Antibacterial Evaluation (Table 1)
# (§2) The minimum inhibitory concentration (MIC), the lowest concentration of the antibiotic which inhibits growth of the test organism, is determined by the broth dilution method using Muller-Hinton II […] (Baltimore Biological Laboratories) following the recommendations of the National Committee for Clinical Laboratory Standards [Methods for dilution antimicrobial susceptibility tests for bacteria that grow aerobically, approved standard M7-A2, National Committee for Clinical Laboratory Standards, Villanova, Pa.].
# (§3) An inoculum level of 5×10^5 CFU/mL, and a range of antibiotic concentrations (64-0.06 μg/mL) is used. […] The test organisms include a spectrum of Gram-positive bacteria comprised of Staphylococcus sp., Streptococcus sp. and Enterococcus sp. These organisms include recent clinical isolates that are resistant to methicillin, penicillin and/or vancomycin.
# Enterococcus sp. = settings: broth dilution, 18 hours at 35° C.; for MIC Enterococcus faecalis (GC 2242): strain GC 2242; for MIC Enterococcus faecalis (GC 2691): strain GC 2691; for MIC Enterococcus faecalis (GC 3059): strain GC 3059
# Protocol: as §1, §2, §3
# Streptococcus sp. = settings: broth dilution, 18 hours at 35° C.; for MIC Streptococcus pneumoniae (ATCC 6301): strain ATCC 6301; for MIC Streptococcus pneumoniae (GC 1894): strain GC 1894; for MIC Streptococcus pyogenes (GC 4563): strain GC 4563; for MIC Streptococcus agalactiae (GC 4564): strain GC 4564; for MIC Streptococcus pneumoniae (GC 4565): strain GC 4565
# Protocol: as §1, §2, §3
smiles,measurement,setting,value
"CC(C1CCCCC1)C1NC(=O)CNC(=O)C(CO)NC(=O)C(C(O)C2CNC(=N)N2C2OC(CO)C(O)C(O)C2O)NC(=O)C(C(O)C2CNC(=N)N2)NC(=O)C(CC2CCC(OC3OC(CO)C(OC4OC(CO)C(O)C(O)C4O)C(O)C3O)CC2)NC1=O (stereo not drawn) [Example 53a, Cyclo[3-[4-[(4-O-hexopyranosylhexopyranosyl)oxy]cyclohexyl]alanyl-3-(2-iminoimidazolidin-4-yl)seryl-3-(3-hexopyranosyl-2-iminoimidazolidin-4-yl)serylserylglycyl-3-cyclohexyl-2-aminobutanoyl]]",MIC Escherichia coli (ATCC 25922),Escherichia coli,>128 µg/mL
same,MIC Escherichia coli (GC 4559),Escherichia coli,>128 µg/mL
same,MIC Escherichia coli (GC 4560),Escherichia coli,>128 µg/mL
same,MIC Staphylococcus aureus (ATCC 29213),Staphylococcus sp.,>128 µg/mL
same,MIC Staphylococcus aureus (GC 1131),Staphylococcus sp.,>128 µg/mL
same,MIC Staphylococcus aureus (GC 3051),Staphylococcus sp.,>128 µg/mL
same,MIC Staphylococcus aureus (GC 3053),Staphylococcus sp.,>128 µg/mL
same,MIC Staphylococcus aureus (GC 4541),Staphylococcus sp.,>128 µg/mL
same,MIC Staphylococcus aureus (GC 4542),Staphylococcus sp.,>128 µg/mL
same,MIC Staphylococcus aureus-SMITH (GC 4543),Staphylococcus sp.,>128 µg/mL
same,MIC Staphylococcus aureus (GC 4544),Staphylococcus sp.,>128 µg/mL
same,MIC Staphylococcus aureus (GC 4545),Staphylococcus sp.,>128 µg/mL
same,MIC Staphylococcus haemolyticus (GC 4546),Staphylococcus sp.,>128 µg/mL
same,MIC Coagulase Negative Staphylococcus (GC 4547),Staphylococcus sp.,>128 µg/mL
same,MIC Coagulase Negative Staphylococcus (GC 4548),Staphylococcus sp.,>128 µg/mL
same,MIC Coagulase Negative Staphylococcus (GC 4549),Staphylococcus sp.,>128 µg/mL
same,MIC Coagulase Negative Staphylococcus (GC 4551),Staphylococcus sp.,>128 µg/mL
same,MIC Enterococcus avium (GC 4558),Enterococcus sp.; Enterococcus avium (GC 4558),>128 µg/mL
same,MIC Enterococcus faecalis (ATCC 29212),Enterococcus sp.; Enterococcus faecalis (ATCC 29212),>128 µg/mL
same,MIC Enterococcus faecalis (GC 4552),Enterococcus sp.; Enterococcus faecalis (GC 4552),>128 µg/mL
same,MIC Enterococcus faecalis (GC 4553),Enterococcus sp.; Enterococcus faecalis (GC 4553),>128 µg/mL
same,MIC Enterococcus faecalis (GC 4554),Enterococcus sp.; Enterococcus faecalis (GC 4554),>128 µg/mL
same,MIC Enterococcus faecalis (GC 6189),Enterococcus sp.; Enterococcus faecalis (GC 6189),>128 µg/mL
same,MIC Enterococcus faecium (GC 2243),Enterococcus sp.; Enterococcus faecium (GC 2243),>128 µg/mL
same,MIC Enterococcus faecium (GC 4556),Enterococcus sp.; Enterococcus faecium (GC 4556),>128 µg/mL
same,MIC Enterococcus faecium (GC 4557),Enterococcus sp.; Enterococcus faecium (GC 4557),>128 µg/mL
same,MIC Enterococcus faecalis (ATCC 29212),Enterococcus sp.; strain ATCC 29212,>128 µg/mL
same,MIC Enterococcus faecalis (GC 2242),Enterococcus sp.,>128 µg/mL
same,MIC Enterococcus faecium (GC 2243),Enterococcus sp.; strain GC 2243,>128 µg/mL
same,MIC Enterococcus faecalis (GC 2691),Enterococcus sp.,>128 µg/mL
same,MIC Enterococcus faecalis (GC 3059),Enterococcus sp.,>128 µg/mL
same,MIC Enterococcus faecalis (GC 4552),Enterococcus sp.; strain GC 4552,>128 µg/mL
same,MIC Enterococcus faecalis (GC 4553),Enterococcus sp.; strain GC 4553,>128 µg/mL
same,MIC Enterococcus faecalis (GC 4554),Enterococcus sp.; strain GC 4554,>128 µg/mL
same,MIC Enterococcus faecium (GC 4556),Enterococcus sp.; strain GC 4556,>128 µg/mL
same,MIC Enterococcus faecium (GC 4557),Enterococcus sp.; strain GC 4557,>128 µg/mL
same,MIC Enterococcus avium (GC 4558),Enterococcus sp.; strain GC 4558,>128 µg/mL
same,MIC Enterococcus faecalis (GC 6189),Enterococcus sp.; strain GC 6189,>128 µg/mL
same,MIC Streptococcus pneumoniae (ATCC 6301),Streptococcus sp.,64 µg/mL
same,MIC Streptococcus pneumoniae (GC 1894),Streptococcus sp.,32 µg/mL
same,MIC Streptococcus pyogenes (GC 4563),Streptococcus sp.,64 µg/mL
same,MIC Streptococcus agalactiae (GC 4564),Streptococcus sp.,64 µg/mL
same,MIC Streptococcus pneumoniae (GC 4565),Streptococcus sp.,64 µg/mL
"CC(c1ccccc1)C1NC(=O)CNC(=O)C(CO)NC(=O)C(C(O)C2CNC(=N)N2C2OC(CO)C(O)C(O)C2O)NC(=O)C(C(O)C2CNC(=N)N2)NC(=O)C(Cc2ccc3oc(-c4cccc(F)c4)nc3c2)NC1=O (stereo not drawn) [Example 30, Cyclo[3-[2-(3-fluorophenyl)-1,3-benzoxazol-5-yl]alanyl-3-(2-iminoimidazolidin-4-yl)seryl-3-(3-hexopyranosyl-2-iminoimidazolidin-4-yl)serylserylglycyl-β-methylphenylalanyl]]",MIC Escherichia coli (ATCC 25922),Escherichia coli,32 µg/mL
same,MIC Escherichia coli (GC 4559),Escherichia coli,32 µg/mL
same,MIC Escherichia coli (GC 4560),Escherichia coli,8 µg/mL
same,MIC Staphylococcus aureus (ATCC 29213),Staphylococcus sp.,8 µg/mL
same,MIC Staphylococcus aureus (GC 1131),Staphylococcus sp.,8 µg/mL
same,MIC Staphylococcus aureus (GC 3051),Staphylococcus sp.,16 µg/mL
same,MIC Staphylococcus aureus (GC 3053),Staphylococcus sp.,16 µg/mL
same,MIC Staphylococcus aureus (GC 4541),Staphylococcus sp.,16 µg/mL
same,MIC Staphylococcus aureus (GC 4542),Staphylococcus sp.,8 µg/mL
same,MIC Staphylococcus aureus-SMITH (GC 4543),Staphylococcus sp.,8 µg/mL
same,MIC Staphylococcus aureus (GC 4544),Staphylococcus sp.,8 µg/mL
same,MIC Staphylococcus aureus (GC 4545),Staphylococcus sp.,8 µg/mL
same,MIC Staphylococcus haemolyticus (GC 4546),Staphylococcus sp.,4 µg/mL
same,MIC Coagulase Negative Staphylococcus (GC 4547),Staphylococcus sp.,8 µg/mL
same,MIC Coagulase Negative Staphylococcus (GC 4548),Staphylococcus sp.,4 µg/mL
same,MIC Coagulase Negative Staphylococcus (GC 4549),Staphylococcus sp.,16 µg/mL
same,MIC Coagulase Negative Staphylococcus (GC 4551),Staphylococcus sp.,8 µg/mL
same,MIC Coagulase Negative Staphylococcus (GC 6257),Staphylococcus sp.; strain GC 6257,4 µg/mL
same,MIC Enterococcus faecalis (ATCC 29212),Enterococcus sp.; strain ATCC 29212,64 µg/mL
same,MIC Enterococcus faecalis (GC 2242),Enterococcus sp.,32 µg/mL
same,MIC Enterococcus faecium (GC 2243),Enterococcus sp.; strain GC 2243,32 µg/mL
same,MIC Enterococcus faecalis (GC 2691),Enterococcus sp.,32 µg/mL
same,MIC Enterococcus faecalis (GC 3059),Enterococcus sp.,64 µg/mL
same,MIC Enterococcus faecalis (GC 4552),Enterococcus sp.; strain GC 4552,64 µg/mL
same,MIC Enterococcus faecalis (GC 4553),Enterococcus sp.; strain GC 4553,16 µg/mL
same,MIC Enterococcus faecalis (GC 4554),Enterococcus sp.; strain GC 4554,64 µg/mL
same,MIC Enterococcus faecium (GC 4556),Enterococcus sp.; strain GC 4556,64 µg/mL
same,MIC Enterococcus faecium (GC 4557),Enterococcus sp.; strain GC 4557,8 µg/mL
same,MIC Enterococcus avium (GC 4558),Enterococcus sp.; strain GC 4558,16 µg/mL
same,MIC Enterococcus faecalis (GC 6189),Enterococcus sp.; strain GC 6189,32 µg/mL
same,MIC Streptococcus pneumoniae (ATCC 6301),Streptococcus sp.,8 µg/mL
same,MIC Streptococcus pneumoniae (GC 1894),Streptococcus sp.,16 µg/mL
same,MIC Streptococcus pyogenes (GC 4563),Streptococcus sp.,4 µg/mL
same,MIC Streptococcus agalactiae (GC 4564),Streptococcus sp.,8 µg/mL
same,MIC Streptococcus pneumoniae (GC 4565),Streptococcus sp.,16 µg/mL
